Data published in patent US20140057915A1, “KINASE INHIBITORS” (TOPIVERT PHARMA LIMITED, priority 2012, published 2014).
Where two headings read alike, the source gives them in different places.

Tests used:
[1] = Hepatic microsomal stability; assay type: in vitro ADME, human; settings: for Mean hepatic extraction ratio (Eh) / microsomal CLint at 0.1 μM: human hepatic microsomes, arithmetic mean of two experiments; for microsomal CLint at 0.1 μM: pooled liver microsomes, read-out: Mean intrinsic clearance; for hepatic clearance: summary of Tables 9a and 9b (microsomes and hepatocytes; human, dog, rat)
Method: (§1) Hepatic Microsomal Stability
(§2) • Microsomal stability assays were performed with incubations of test compounds at 0.1 μM (n=2, final DMSO concentration 0.25%), and carried out using pooled human, dog and rat hepatic microsomes from Xenotech (Lots 1210153, 0810143 and 1110042, respectively) at 0.25 mg protein/mL in the presence of co-factor, NADPH. The incubations were performed at 37° C. with 100 μL aliquots taken from the incubation, at 0, 2, 5, 10 and 20 minutes and reactions terminated by addition of 100 μL of acetonitrile containing carbamazepine as analytical internal standard. […] Half-life values were calculated from the relationship
(§3) where λ was the slope of the Ln concentration vs time curve. • The in vitro intrinsic clearance, CIint (mL/min/kg), was calculated and scaled to hepatic extraction ratios using the following scaling parameters and formulae.
(§4) CIint(tissue clearance) mL/min/kg=[0.693/t½(min)]×[1/microsomal protein concentration mg/mL]×[mg microsomes/g liver]×[g liver/kg body weight]
(§5) CIint(hepatic clearance) mL/min/kg=hepatic blood flow×CIint/(hepatic blood flow+CIint)
(§6) Hepatic extraction ratio(Eh)=CIint(hepatic clearance) mL/min/kg/hepatic blood flow(mL/min/kg)

[2] = Hepatic microsomal stability; assay type: in vitro ADME; settings: arithmetic mean of two experiments; for microsomal CLint at 0.1 μM: pooled liver microsomes, read-out: Mean intrinsic clearance
Method: as §1, §2, §3, §4, §5, §6

[3] = Cryopreserved hepatocyte stability; assay type: in vitro ADME; settings: arithmetic mean of two experiments; for hepatocyte CLint at 0.1 μM: read-out: Mean intrinsic clearance
Method: Cryopreserved Hepatocyte Stability
• Hepatocyte stability assays were performed with incubations of test compounds (0.1 μM initial concentration, n=2) carried out with pooled human, dog and rat cryopreserved hepatocytes from Celsis (Lot numbers RRW, KLI and WAP, respectively) at a cell density of 0.5 million cells/mL. The incubations were performed at 37° C. with 100 μL samples taken from the incubation, at 0, 10, 20, 45 and 90 minutes, and reactions terminated by addition of 100 μL of acetonitrile containing carbamazepine as analytical internal standard. […] Half-life values were calculated from the relationship
T1/2(min)=−0.693/λ • where λ was the slope of the Ln concentration vs time curve. • Standard compounds testosterone, midazolam and 4-methylumbelliferone are included in the assay design. These compounds give an indication of the metabolic capacity of the cryopreserved preparations for both Phase I and Phase II reactions. • In vitro intrinsic clearance (CIint), as μL/min/million cells was calculated by applying the following formula to the half-life values:
CIint(Tissue Clearance) mL/min/kg=[0.693/t½(min)]×[1/hepatocyte concentration(million cells/mL)]×[million cells/g liver]×[g liver/kg body weight]
CIint(Hepatic clearance) mL/min/kg=hepatic blood flow×CIint/(hepatic blood flow+CIint)
Hepatic extraction ratio(Eh)=CIint(Hepatic clearance) mL/min/kg/hepatic blood flow(mL/min/kg)

[4] = target: T1, human ether a go-go (hERG) channel (Homo sapiens, UniProt Q12809); assay: hERG inhibition (IonWorks patch clamp electrophysiology); assay type: cell-based; settings: maximum final assay concentration 3 μM
T1 construct: a Chinese Hamster Lung cell line stably expressing the full length hERG channel
Method: Eight-point concentration curves were generated using serial 3-fold dilutions from the maximum final assay concentration (3 μM). Electrophysiological recordings were made from a Chinese Hamster Lung cell line stably expressing the full length hERG channel. Single cell ionic currents were measured in the perforated patch clamp configuration (100 μg/mL) amphotericin) at room temperature (21-23° C.) using an IonWorks Quattro instrument. The internal solution contained (mM): 140 KCl, 1 MgCl2, 1 EGTA, 20 HEPES and was buffered to pH 7.3. The external solution contained (mM):138 NaCl, 2.7 KCl, 0.9 CaCl2, 0.5 MgCl2, 8 Na2HPO4, 1.5 KH2PO4, also buffered to pH 7.3. Cells were clamped at a holding potential of −70 mV for 30 s and then stepped to +40 mV for 1 s. This was followed by a hyperpolarising step of 1s to −30 mV to evoke the hERG tail current. This sequence was repeated 5 times at a frequency of 0.25 Hz. Currents were measured from the tail step at the 5th pulse, and referenced to the holding current. Compounds were then incubated for 6-7 minutes prior to a second measurement of the hERG signal using an identical pulse train. Eight-point concentration curves were generated using serial 3-fold dilutions from the maximum final assay concentration (3 μM).

B-Raf = B-Raf (Homo sapiens, UniProt P15056); assay: Enzyme binding assay (Kinomescan)
Method: Enzyme Binding Assays (Kinomescan)
The kinase enzyme binding activities of compounds disclosed herein were determined using a proprietary assay which measures active site-directed competition binding to an immobilized ligand (Fabian, M. A. et al., Nature Biotechnol., 2005, 23:329-336). These assays were conducted by DiscoverX (formerly Ambit; San Diego, Calif.). The percentage inhibition produced by incubation with a test compound is calculated relative to the non-inhibited control.

[5] = tested on: intestinal mucosa biopsies from the inflamed regions of the colon of IBD patients; assay: Human biopsy assay (cytokine release from intestinal mucosa biopsies of IBD/UC patients); assay type: cell-based; settings: in vitro
Method: Intestinal mucosa biopsies are obtained from the inflamed regions of the colon of IBD patients. The biopsy material is cut into small pieces (2-3 mm) and placed on steel grids in an organ culture chamber at 37° C. in a 5% CO2/95% O2 atmosphere in serum-free media. DMSO control or test compounds at the desired concentration are added to the tissue and incubated for 24 hr in the organ culture chamber. The supernatant is harvested for determination of IL-6, IL-8, IL-1β and TNFα levels by R&D ELISA.

BDF1 mice = assay: TNBS-induced colitis in mice; assay type: in vivo, mouse; settings: for inflammatory cell infiltrate in the reticular and lamina propria zones / activity in the in vivo model of colonic inflammation (histopathology analysis): TNBS; for activity in the in vivo model of colonic inflammation (histopathology analysis): 2 days; for ulcer grade and epithelial repair compared to the vehicle control: dosed orally at 5 mg/kg
Method: (C) TNBS-Induced Colitis in Mice […] On Day 0 of the study TNBS (200 μL) is administered intra-colonically via a plastic catheter followed by BID dosing of the vehicle, reference or test compound for 2 or 4 days. During the study animals are weighed every day and stool observations are made and recorded as a score, based on stool consistency. At the time of sacrifice on Day 2 (or Day 4) the large intestine is removed and the length and weight recorded. Sections of the colon are taken for either MPO analysis to determine neutrophil infiltration or for histopathology involving scoring to determine disease severity.

[6] = human cryopreserved hepatocytes
[7] = pooled cryopreserved hepatocytes, dog cryopreserved hepatocytes
[8] = pooled cryopreserved hepatocytes, rat cryopreserved hepatocytes
[9] = pooled cryopreserved human hepatocytes

Chain of B-Raf (P15056 whole entry): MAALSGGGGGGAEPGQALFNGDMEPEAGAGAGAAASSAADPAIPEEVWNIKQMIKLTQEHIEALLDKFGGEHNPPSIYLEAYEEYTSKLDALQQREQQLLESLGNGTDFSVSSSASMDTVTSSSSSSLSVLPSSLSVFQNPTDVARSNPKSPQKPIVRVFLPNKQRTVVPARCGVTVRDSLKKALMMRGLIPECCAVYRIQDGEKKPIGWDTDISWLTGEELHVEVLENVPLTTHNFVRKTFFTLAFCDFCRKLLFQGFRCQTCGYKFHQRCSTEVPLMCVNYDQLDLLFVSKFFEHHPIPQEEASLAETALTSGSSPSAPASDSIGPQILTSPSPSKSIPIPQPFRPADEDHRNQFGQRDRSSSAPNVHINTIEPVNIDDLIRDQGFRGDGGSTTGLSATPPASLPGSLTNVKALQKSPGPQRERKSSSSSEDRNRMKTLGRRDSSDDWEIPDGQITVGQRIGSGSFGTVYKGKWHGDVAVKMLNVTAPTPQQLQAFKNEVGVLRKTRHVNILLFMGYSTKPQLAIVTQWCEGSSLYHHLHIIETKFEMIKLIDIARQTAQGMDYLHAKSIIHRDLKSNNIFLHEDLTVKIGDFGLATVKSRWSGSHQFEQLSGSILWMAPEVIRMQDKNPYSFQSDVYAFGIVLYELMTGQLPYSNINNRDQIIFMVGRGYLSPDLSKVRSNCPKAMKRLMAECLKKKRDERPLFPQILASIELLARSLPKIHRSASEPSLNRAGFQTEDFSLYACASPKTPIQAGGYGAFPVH
T1 sequence (Q12809 whole entry): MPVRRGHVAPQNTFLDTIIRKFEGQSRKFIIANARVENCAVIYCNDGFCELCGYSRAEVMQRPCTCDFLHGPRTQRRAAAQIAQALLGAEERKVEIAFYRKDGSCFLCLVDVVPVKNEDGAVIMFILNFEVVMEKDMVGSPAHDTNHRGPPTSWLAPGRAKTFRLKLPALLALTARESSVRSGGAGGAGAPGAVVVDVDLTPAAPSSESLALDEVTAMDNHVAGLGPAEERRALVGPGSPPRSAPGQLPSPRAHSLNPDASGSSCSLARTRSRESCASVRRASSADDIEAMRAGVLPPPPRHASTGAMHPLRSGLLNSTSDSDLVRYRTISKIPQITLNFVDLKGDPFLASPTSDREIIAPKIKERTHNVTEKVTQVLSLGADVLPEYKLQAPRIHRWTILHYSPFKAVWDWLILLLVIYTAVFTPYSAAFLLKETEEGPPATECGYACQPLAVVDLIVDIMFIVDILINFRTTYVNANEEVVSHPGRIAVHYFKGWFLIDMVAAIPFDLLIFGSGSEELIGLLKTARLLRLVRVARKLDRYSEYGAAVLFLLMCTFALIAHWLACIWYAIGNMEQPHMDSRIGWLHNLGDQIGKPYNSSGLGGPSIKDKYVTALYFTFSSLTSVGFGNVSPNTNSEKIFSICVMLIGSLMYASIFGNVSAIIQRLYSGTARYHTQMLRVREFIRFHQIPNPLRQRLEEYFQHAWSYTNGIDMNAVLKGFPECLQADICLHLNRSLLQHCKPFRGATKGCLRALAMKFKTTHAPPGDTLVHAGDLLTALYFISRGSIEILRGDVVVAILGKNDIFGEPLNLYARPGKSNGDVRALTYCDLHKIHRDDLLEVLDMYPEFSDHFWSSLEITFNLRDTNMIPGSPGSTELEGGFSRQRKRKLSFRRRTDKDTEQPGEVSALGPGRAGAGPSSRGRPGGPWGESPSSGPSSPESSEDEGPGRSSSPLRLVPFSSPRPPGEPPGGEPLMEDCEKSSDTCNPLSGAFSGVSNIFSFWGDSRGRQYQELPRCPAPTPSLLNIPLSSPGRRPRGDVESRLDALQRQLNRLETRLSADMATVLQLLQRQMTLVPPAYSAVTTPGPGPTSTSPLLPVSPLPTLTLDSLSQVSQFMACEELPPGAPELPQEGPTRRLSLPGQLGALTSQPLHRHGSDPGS

C#Cc1cc(Nc2nccc(Oc3ccc(NC(=O)Nc4cc(C(C)(C)C)nn4-c4ccc(N(C)C)cc4)c4ccccc34)n2)cc(C(=O)NCCN2CCOCC2)c1 [Example 80, 3-((4-((4-(3-(3-(tert-Butyl)-1-(4-(dimethylamino)phenyl)-1H-pyrazol-5-yl)ureido)naphthalen-1-yl)oxy)pyrimidin-2-yl)amino)-5-ethynyl-N-(2-morpholinoethyl)-benzamide]
Mean hepatic extraction ratio (Eh) [1]: 0.93
microsomal CLint at 0.1 μM [1]: 216 µL/min/mg
hepatic clearance [1]: high hepatic clearance
Mean hepatic extraction ratio (Eh) ([2]; dog hepatic microsomes): 0.91
microsomal CLint at 0.1 μM ([2]; dog hepatic microsomes): 146 µL/min/mg
microsomal CLint at 0.1 μM ([2]; rat hepatic microsomes): 91 µL/min/mg
Mean hepatic extraction ratio (Eh) ([2]; rat hepatic microsomes): 0.77
Mean hepatic extraction ratio (Eh) ([3]; dog cryopreserved hepatocytes): 0.73
Mean hepatic extraction ratio (Eh) [3, 6]: <0.61
hepatocyte CLint at 0.1 μM [3, 7]: 11 µL/min/1e6 cells
hepatocyte CLint at 0.1 μM [3, 8]: < 8 µL/min/1e6 cells
hepatocyte CLint at 0.1 μM [3, 9]: < 11 µL/min/1e6 cells
Mean hepatic extraction ratio (Eh) ([3]; rat cryopreserved hepatocytes): <0.44
IC50 [4]: > 3 µM

C#Cc1cc(Nc2nccc(Oc3ccc(NC(=O)Nc4cc(C(C)(C)C)nn4-c4ccc(OC)cc4)c4ccccc34)n2)cc(C(=O)NCCN2CCOCC2)c1 [Example 77, 3-((4-((4-(3-(3-(tert-Butyl)-1-(4-methoxyphenyl)-1H-pyrazol-5-yl)ureido)-naphthalen-1-yl)oxy)pyrimidin-2-yl)amino)-5-ethynyl-N-(2-morpholinoethyl)benzamide]
effect on the binding of the kinase B-Raf to its standard ligand (B-Raf; KINOMEscan): did not have any effect on the binding
IL-1b, IL-6 and IL-8 release from biopsies of UC patients [5]: markedly reduced
inflammatory cell infiltrate in the reticular and lamina propria zones (BDF1 mice): marked reduction
activity in the in vivo model of colonic inflammation (histopathology analysis) (BDF1 mice): significant activity
ulcer grade and epithelial repair compared to the vehicle control (BDF1 mice): marked improvements
Mean hepatic extraction ratio (Eh) [1]: 0.94
microsomal CLint at 0.1 μM [1]: 308 µL/min/mg
hepatic clearance [1]: high hepatic clearance
Mean hepatic extraction ratio (Eh) ([2]; dog hepatic microsomes): 0.94
microsomal CLint at 0.1 μM ([2]; dog hepatic microsomes): 189 µL/min/mg
microsomal CLint at 0.1 μM ([2]; rat hepatic microsomes): 120 µL/min/mg
Mean hepatic extraction ratio (Eh) ([2]; rat hepatic microsomes): 0.82
Mean hepatic extraction ratio (Eh) ([3]; dog cryopreserved hepatocytes): 0.87
Mean hepatic extraction ratio (Eh) [3, 6]: 0.69
hepatocyte CLint at 0.1 μM [3, 7]: 26 µL/min/1e6 cells
hepatocyte CLint at 0.1 μM [3, 8]: 12 µL/min/1e6 cells
hepatocyte CLint at 0.1 μM [3, 9]: 16 µL/min/1e6 cells
Mean hepatic extraction ratio (Eh) ([3]; rat cryopreserved hepatocytes): 0.55
IC50 [4]: > 3 µM

COc1cc(Nc2nccc(Oc3ccc(NC(=O)Nc4cc(C(C)C)nn4-c4ccc(C)cc4)c4ccccc34)n2)cc(C(=O)NCCN2CCOCC2)c1 [Example 8, 3-((4-((4-(3-(3-Isopropyl-1-(p-tolyl)-1H-pyrazol-5-yl)ureido)naphthalen-1-yl)oxy)pyrimidin-2-yl)amino)-5-methoxy-N-(2-morpholinoethyl)benzamide]
inhibition at 0.5 µM (B-Raf; read-out: % Inhibition of kinase binding at 500 nM, B-Raf): 29%

C#Cc1cc(Nc2nccc(Oc3ccc(NC(=O)Nc4cc(C(C)C)nn4-c4ccc(C)cc4)c4ccccc34)n2)cc(C(=O)NCCN2CCOCC2)c1 [Example 46, 3-ethynyl-5-((4-((4-(3-(3-isopropyl-1-(p-tolyl)-1H-pyrazol-5-yl)ureido)naphthalen-1-yl)oxy)pyrimidin-2-yl)amino)-N-(2-morpholinoethyl)benzamide]
IL-1b, IL-6 and IL-8 release from biopsies of UC patients [5]: markedly reduced
inflammatory cell infiltrate in the reticular and lamina propria zones (BDF1 mice): marked reduction
activity in the in vivo model of colonic inflammation (histopathology analysis) (BDF1 mice): significant activity
ulcer grade and epithelial repair compared to the vehicle control (BDF1 mice): marked improvements
